Values of other authors as cited in patent US20020022057A1, “Oral delivery of pharmaceuticals via encapsulation” (priority 2000, published 2002).

How the values were obtained:
[1] = applied topically to the skin
[2] = sublingual versus oral

Structure (SMILES) | skin reactions, including erythema and peeling [1] | sublingual applications more effective than oral applications [2] [%]
CC(=O)Oc1ccccc1C(=O)O [Aspirin, aspirin] | 30 % of the subjects | –
CC(=O)[C@H]1CC[C@H]2[C@@H]3CCC4=CC(=O)CC[C@]4(C)[C@H]3CC[C@]12C [progesterone] | – | 50
